Assay results taken from patent US10344060B2 (priority 2013, dated 2019).
Like-named read-outs stand apart in the source and are kept apart here.

How the values were obtained:
[1] = target: hNav1.4 (Homo sapiens, UniProt P35499); assay: cell-based; assay type: cell-based; conditions: for IC50: PatchXpress, read-out: PX hNav1.4 Tonic IC50; for Nav1.4/Nav1.7: ratio of PX tonic IC50 values
[2] = target: hNav1.7 (Homo sapiens, UniProt Q15858); assay: cell-based; assay type: cell-based; conditions: for IC50: PatchXpress, read-out: PX hNav1.7 Tonic IC50; for Nav1.4/Nav1.7: ratio of PX tonic IC50 values
hNav1.7, sequence (Q15858 whole entry): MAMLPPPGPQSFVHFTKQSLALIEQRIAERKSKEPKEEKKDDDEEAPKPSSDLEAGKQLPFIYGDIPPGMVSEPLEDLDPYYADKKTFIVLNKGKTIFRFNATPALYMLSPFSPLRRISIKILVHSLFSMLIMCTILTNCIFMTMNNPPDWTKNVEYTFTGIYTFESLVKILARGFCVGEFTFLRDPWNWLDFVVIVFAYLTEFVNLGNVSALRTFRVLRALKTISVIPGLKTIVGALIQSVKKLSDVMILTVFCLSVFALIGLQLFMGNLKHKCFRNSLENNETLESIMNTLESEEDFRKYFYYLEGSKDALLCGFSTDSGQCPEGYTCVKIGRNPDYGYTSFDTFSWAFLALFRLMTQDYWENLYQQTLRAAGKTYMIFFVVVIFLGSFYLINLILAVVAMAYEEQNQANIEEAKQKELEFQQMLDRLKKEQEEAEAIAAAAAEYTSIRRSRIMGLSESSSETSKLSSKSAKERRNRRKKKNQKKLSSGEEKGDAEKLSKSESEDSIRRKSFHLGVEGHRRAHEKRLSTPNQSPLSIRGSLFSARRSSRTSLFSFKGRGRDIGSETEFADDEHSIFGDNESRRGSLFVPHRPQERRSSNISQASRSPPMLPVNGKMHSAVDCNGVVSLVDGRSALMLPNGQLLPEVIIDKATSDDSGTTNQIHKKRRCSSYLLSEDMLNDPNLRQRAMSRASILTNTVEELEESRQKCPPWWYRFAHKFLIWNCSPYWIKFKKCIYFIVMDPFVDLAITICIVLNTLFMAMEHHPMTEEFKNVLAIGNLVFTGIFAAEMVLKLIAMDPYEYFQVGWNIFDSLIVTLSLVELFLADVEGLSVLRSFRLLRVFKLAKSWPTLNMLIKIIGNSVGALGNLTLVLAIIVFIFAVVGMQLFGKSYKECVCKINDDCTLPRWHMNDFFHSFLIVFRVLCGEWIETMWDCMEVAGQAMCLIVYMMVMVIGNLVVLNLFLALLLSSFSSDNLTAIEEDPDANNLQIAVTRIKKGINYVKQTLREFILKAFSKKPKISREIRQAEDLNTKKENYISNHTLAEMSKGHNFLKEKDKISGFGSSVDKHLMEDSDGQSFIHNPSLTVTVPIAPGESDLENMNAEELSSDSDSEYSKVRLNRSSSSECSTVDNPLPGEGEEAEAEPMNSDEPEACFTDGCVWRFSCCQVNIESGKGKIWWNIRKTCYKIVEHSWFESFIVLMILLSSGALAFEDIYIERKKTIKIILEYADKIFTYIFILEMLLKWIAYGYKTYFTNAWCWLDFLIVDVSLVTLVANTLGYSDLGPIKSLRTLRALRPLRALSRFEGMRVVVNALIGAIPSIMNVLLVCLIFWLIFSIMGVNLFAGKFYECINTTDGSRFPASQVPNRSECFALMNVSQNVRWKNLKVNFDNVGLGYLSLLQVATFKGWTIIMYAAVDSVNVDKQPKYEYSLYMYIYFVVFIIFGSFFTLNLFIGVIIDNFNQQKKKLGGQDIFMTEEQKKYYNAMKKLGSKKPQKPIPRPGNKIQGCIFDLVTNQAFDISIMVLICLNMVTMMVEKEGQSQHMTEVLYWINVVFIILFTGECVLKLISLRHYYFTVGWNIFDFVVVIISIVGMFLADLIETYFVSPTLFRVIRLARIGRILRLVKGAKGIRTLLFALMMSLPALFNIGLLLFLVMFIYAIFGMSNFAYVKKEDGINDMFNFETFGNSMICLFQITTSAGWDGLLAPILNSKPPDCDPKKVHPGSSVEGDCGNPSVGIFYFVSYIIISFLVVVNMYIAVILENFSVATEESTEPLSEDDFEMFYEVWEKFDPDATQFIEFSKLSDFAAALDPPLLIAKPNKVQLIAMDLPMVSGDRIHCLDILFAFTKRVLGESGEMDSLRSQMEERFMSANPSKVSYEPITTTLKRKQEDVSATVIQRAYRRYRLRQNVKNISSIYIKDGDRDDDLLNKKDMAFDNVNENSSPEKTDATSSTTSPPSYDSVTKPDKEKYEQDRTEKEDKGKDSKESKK

hNav1.4, sequence (P35499 whole entry): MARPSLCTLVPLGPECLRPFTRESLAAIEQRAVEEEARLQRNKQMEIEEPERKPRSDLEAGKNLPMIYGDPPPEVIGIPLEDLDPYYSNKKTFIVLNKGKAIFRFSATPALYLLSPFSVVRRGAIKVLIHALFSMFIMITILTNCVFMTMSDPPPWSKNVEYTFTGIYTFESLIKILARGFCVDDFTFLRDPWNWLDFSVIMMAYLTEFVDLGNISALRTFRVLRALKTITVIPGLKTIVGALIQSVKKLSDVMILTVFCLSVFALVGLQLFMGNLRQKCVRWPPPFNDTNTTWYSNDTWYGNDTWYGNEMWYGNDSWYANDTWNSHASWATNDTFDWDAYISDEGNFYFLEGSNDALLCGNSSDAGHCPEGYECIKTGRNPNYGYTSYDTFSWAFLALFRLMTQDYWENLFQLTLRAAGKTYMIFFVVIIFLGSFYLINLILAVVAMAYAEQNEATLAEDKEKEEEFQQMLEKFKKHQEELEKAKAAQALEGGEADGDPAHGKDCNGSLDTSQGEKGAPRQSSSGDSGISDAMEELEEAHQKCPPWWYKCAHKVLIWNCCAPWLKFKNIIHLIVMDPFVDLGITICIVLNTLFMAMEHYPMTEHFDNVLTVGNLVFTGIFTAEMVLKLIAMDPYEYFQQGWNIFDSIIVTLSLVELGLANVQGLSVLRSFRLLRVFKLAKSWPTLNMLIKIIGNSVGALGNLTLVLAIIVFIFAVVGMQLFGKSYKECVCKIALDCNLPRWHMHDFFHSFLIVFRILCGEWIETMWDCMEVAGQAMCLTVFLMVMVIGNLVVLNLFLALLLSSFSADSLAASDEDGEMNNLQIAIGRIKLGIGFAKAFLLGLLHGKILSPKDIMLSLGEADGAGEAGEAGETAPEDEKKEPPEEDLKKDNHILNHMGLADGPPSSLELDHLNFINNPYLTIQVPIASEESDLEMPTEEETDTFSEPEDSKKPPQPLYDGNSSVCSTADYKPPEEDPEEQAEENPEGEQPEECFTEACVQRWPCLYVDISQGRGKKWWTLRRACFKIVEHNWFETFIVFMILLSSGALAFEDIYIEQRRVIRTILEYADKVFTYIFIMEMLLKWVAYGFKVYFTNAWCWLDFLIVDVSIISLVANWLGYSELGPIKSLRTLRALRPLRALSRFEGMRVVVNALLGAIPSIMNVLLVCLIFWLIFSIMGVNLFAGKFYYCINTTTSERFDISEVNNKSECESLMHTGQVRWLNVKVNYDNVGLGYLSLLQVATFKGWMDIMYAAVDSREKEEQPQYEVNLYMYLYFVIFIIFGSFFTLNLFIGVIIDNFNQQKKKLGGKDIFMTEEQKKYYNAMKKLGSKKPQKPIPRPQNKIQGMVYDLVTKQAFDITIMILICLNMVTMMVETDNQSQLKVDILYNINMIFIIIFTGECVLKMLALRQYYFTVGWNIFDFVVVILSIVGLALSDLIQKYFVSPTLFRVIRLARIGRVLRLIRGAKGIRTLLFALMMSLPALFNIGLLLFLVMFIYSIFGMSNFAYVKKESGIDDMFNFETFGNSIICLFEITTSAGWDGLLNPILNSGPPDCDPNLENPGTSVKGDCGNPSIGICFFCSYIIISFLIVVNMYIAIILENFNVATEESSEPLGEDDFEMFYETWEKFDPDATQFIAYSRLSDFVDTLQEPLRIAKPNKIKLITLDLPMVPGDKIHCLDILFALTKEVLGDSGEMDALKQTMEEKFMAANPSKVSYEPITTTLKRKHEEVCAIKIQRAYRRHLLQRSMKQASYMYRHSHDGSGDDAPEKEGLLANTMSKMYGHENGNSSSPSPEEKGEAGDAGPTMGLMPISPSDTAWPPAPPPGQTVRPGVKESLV

Structure (SMILES)	IC50 ([1]; tonic, Table 11) [nM]	IC50 ([2]; tonic, Table 11) [nM]	IC50 ([1]; Table 12, tonic block) [nM]	Nav1.4/Nav1.7 ([1]; Table 12)	IC50 ([2]; Table 12, tonic block) [nM]	Nav1.4/Nav1.7 ([2]; Table 11)
CC[C@H](C)[C@H](NC(=O)[C@@H](NC(=O)[C@H](CCCCN)NC(=O)[C@H](CCCNC(=N)N)NC(=O)[C@@H]1CSSC[C@@H]2NC(=O)[C@H](C)NC(=O)[C@H](CCCNC(=N)N)NC(=O)[C@H](CCCCN)NC(=O)[C@H](CO)NC(=O)[C@H](CC(=O)O)NC(=O)[C@@H]3CSSC[C@H](NC(=O)[C@H](CCCNC(=N)N)NC(=O)[C@H](CC(C)C)NC(=O)CNC(=O)[C@H](CCC(=O)O)NC(=O)[C@H](CSSC[C@H](NC(=O)[C@@H](N)Cc4ccc(O)cc4)C(=O)N[C@@H](CCC(N)=O)C(=O)N[C@@H](CCCCN)C(=O)N[C@@H](CCC(=O)O)C(=O)N[C@@H](CCSC)C(=O)N[C@@H](Cc4c[nH]c5ccccc45)C(=O)N[C@@H]([C@@H](C)O)C(=O)N3)NC2=O)C(=O)N[C@@H](CCCCN)C(=O)N[C@@H](CC(C)C)C(=O)N[C@@H](Cc2c[nH]c3ccccc23)C(=O)N1)[C@@H](C)CC)C(N)=O [compound 52]	3.1	> 1000	–	–	–	–
C#CC[C@H](N)C(=O)N[C@@H](Cc1ccc(O)cc1)C(=O)N[C@H]1CSSC[C@@H]2NC(=O)[C@@H]3CSSC[C@@H](C(=O)N[C@@H](CCCNC(=N)N)C(=O)N[C@@H](CCCCN)C(=O)N[C@@H](CCC(=O)O)C(=O)N[C@@H](Cc4ccccc4)C(N)=O)NC(=O)[C@H](Cc4c[nH]c5ccccc45)NC(=O)[C@H](CC(C)C)NC(=O)[C@H](CCCCN)NC(=O)[C@H](CSSC[C@H](NC(=O)[C@H]([C@@H](C)O)NC(=O)[C@H](Cc4c[nH]c5ccccc45)NC(=O)[C@H](CCCC)NC(=O)[C@H](Cc4c[nH]c5ccccc45)NC(=O)[C@H](CCCCN)NC(=O)[C@H](CCC(N)=O)NC1=O)C(=O)N[C@@H](CC(=O)O)C(=O)N[C@@H](CO)C(=O)N[C@@H](CCCCN)C(=O)N[C@@H](CCCNC(=N)N)C(=O)N[C@@H](C)C(=O)N3)NC(=O)[C@H](CCCNC(=N)N)NC(=O)[C@H](CC(C)C)NC(=O)CNC(=O)[C@H](CCC(=O)O)NC2=O [compound 861]	–	–	304	785	0.388	–
C#CC[C@H](N)C(=O)N[C@@H](Cc1ccc(O)cc1)C(=O)N[C@H]1CSSC[C@@H]2NC(=O)[C@@H]3CSSC[C@@H](C(=O)N[C@@H](CCCNC(=N)N)C(=O)N[C@@H](CCCCN)C(=O)N[C@@H](CCC(=O)O)C(=O)N[C@H](C(N)=O)[C@@H](C)CC)NC(=O)[C@H](Cc4c[nH]c5ccccc45)NC(=O)[C@H](CC(C)C)NC(=O)[C@H](CCCCN)NC(=O)[C@H](CSSC[C@H](NC(=O)[C@H]([C@@H](C)O)NC(=O)[C@H](Cc4c[nH]c5ccccc45)NC(=O)[C@H](Cc4ccccc4)NC(=O)[C@H](Cc4c[nH]c5ccccc45)NC(=O)[C@H](CCCCN)NC(=O)[C@H](CCC(N)=O)NC1=O)C(=O)N[C@@H](CC(=O)O)C(=O)N[C@@H](CO)C(=O)N[C@@H](CCCCN)C(=O)N[C@@H](CCCNC(=N)N)C(=O)N[C@@H](C)C(=O)N3)NC(=O)[C@H](CCCNC(=N)N)NC(=O)[C@H](CC(C)C)NC(=O)CNC(=O)[C@H](CCC(=O)O)NC2=O [compound 863]	–	–	61.6	45	1.36	–
C#CC[C@H](N)C(=O)N[C@H]1CSSC[C@@H]2NC(=O)[C@@H]3CSSC[C@@H](C(=O)N[C@@H](CCCNC(=N)N)C(=O)N[C@@H](CCCCN)C(=O)N[C@@H](CCC(=O)O)C(=O)N[C@H](C(N)=O)[C@@H](C)CC)NC(=O)[C@H](Cc4c[nH]c5ccccc45)NC(=O)[C@H](CC(C)C)NC(=O)[C@H](CCCCN)NC(=O)[C@H](CSSC[C@H](NC(=O)[C@H]([C@@H](C)O)NC(=O)[C@H](Cc4c[nH]c5ccccc45)NC(=O)[C@H](CCCC)NC(=O)[C@H](Cc4c[nH]c5ccccc45)NC(=O)[C@H](CCCCN)NC(=O)[C@H](CCC(N)=O)NC1=O)C(=O)N[C@@H](CC(=O)O)C(=O)N[C@@H](CO)C(=O)N[C@@H](CCCCN)C(=O)N[C@@H](CCCNC(=N)N)C(=O)N[C@@H](C)C(=O)N3)NC(=O)[C@H](C(C)C)NC(=O)[C@H](CC(C)C)NC(=O)CNC(=O)[C@H](CCC(=O)O)NC2=O [compound 1688]	–	–	1120	280	3.99	–
C#CC[C@H](N)C(=O)N[C@@H](Cc1ccc(O)cc1)C(=O)N[C@H]1CSSC[C@@H]2NC(=O)[C@@H]3CSSC[C@@H](C(=O)N[C@@H](CCCNC(=N)N)C(=O)N[C@@H](CCCCN)C(=O)N[C@@H](CCC(=O)O)C(=O)N[C@H](C(N)=O)[C@@H](C)CC)NC(=O)[C@H](Cc4c[nH]c5ccccc45)NC(=O)[C@H](CC4CCCCC4)NC(=O)[C@H](CCCCN)NC(=O)[C@H](CSSC[C@H](NC(=O)[C@H]([C@@H](C)O)NC(=O)[C@H](Cc4c[nH]c5ccccc45)NC(=O)[C@H](CCCC)NC(=O)[C@H](Cc4c[nH]c5ccccc45)NC(=O)[C@H](CCCCN)NC(=O)[C@H](CCC(N)=O)NC1=O)C(=O)N[C@@H](CC(=O)O)C(=O)N[C@@H](CO)C(=O)N[C@@H](CCCCN)C(=O)N[C@@H](CCCNC(=N)N)C(=O)N[C@@H](C)C(=O)N3)NC(=O)[C@H](CCCNC(=N)N)NC(=O)[C@H](CC(C)C)NC(=O)CNC(=O)[C@H](CCC(=O)O)NC2=O [compound 860]	–	–	117	73	1.61	–
C#CC[C@H](N)C(=O)N[C@@H](Cc1ccc(O)cc1)C(=O)N[C@H]1CSSC[C@@H]2NC(=O)[C@@H]3CSSC[C@@H](C(=O)N[C@@H](CCCNC(=N)N)C(=O)N[C@@H](CCCCN)C(=O)N[C@@H](CCC(=O)O)C(=O)N[C@H](C(N)=O)[C@@H](C)CC)NC(=O)[C@H](Cc4c[nH]c5ccccc45)NC(=O)[C@H](CCCC)NC(=O)[C@H](CCCCN)NC(=O)[C@H](CSSC[C@H](NC(=O)[C@H]([C@@H](C)O)NC(=O)[C@H](Cc4c[nH]c5ccccc45)NC(=O)[C@H](CCCC)NC(=O)[C@H](Cc4c[nH]c5ccccc45)NC(=O)[C@H](CCCCN)NC(=O)[C@H](CCC(N)=O)NC1=O)C(=O)N[C@@H](CC(=O)O)C(=O)N[C@@H](CO)C(=O)N[C@@H](CCCCN)C(=O)N[C@@H](CCCNC(=N)N)C(=O)N[C@@H](C)C(=O)N3)NC(=O)[C@H](CCCNC(=N)N)NC(=O)[C@H](CC(C)C)NC(=O)CNC(=O)[C@H](CCC(=O)O)NC2=O [compound 856]	–	–	102	59	1.72	–
CC[C@H](C)[C@H](NC(=O)[C@@H](NC(=O)[C@H](CCCCN)NC(=O)[C@H](CCCNC(=N)N)NC(=O)[C@@H]1CSSC[C@@H]2NC(=O)[C@H](C)NC(=O)[C@H](CCCNC(=N)N)NC(=O)[C@H](CCC(=O)O)NC(=O)[C@H](CO)NC(=O)[C@H](CC(=O)O)NC(=O)[C@@H]3CSSC[C@H](NC(=O)[C@H](CCCNC(=N)N)NC(=O)[C@H](CC(C)C)NC(=O)CNC(=O)[C@H](CCC(=O)O)NC(=O)[C@H](CSSC[C@H](NC(=O)[C@@H](N)Cc4ccc(O)cc4)C(=O)N[C@@H](CCC(N)=O)C(=O)N[C@@H](CCCCN)C(=O)N[C@@H](Cc4c[nH]c5ccccc45)C(=O)N[C@@H](CCSC)C(=O)N[C@@H](Cc4c[nH]c5ccccc45)C(=O)N[C@@H]([C@@H](C)O)C(=O)N3)NC2=O)C(=O)N[C@@H](CCCCN)C(=O)N[C@@H](CC(C)C)C(=O)N[C@@H](Cc2c[nH]c3ccccc23)C(=O)N1)[C@@H](C)CC)C(N)=O [compound 58]	43.2	0.904	–	–	–	48
CC[C@H](C)[C@H](NC(=O)[C@@H](NC(=O)[C@H](CCCCN)NC(=O)[C@H](CCCNC(=N)N)NC(=O)[C@@H]1CSSC[C@@H]2NC(=O)[C@H](C)NC(=O)[C@H](CCCNC(=N)N)NC(=O)[C@H](CCCCN)NC(=O)[C@H](CO)NC(=O)[C@H](CC(=O)O)NC(=O)[C@@H]3CSSC[C@H](NC(=O)[C@H](CCCNC(=N)N)NC(=O)[C@H](CC(C)C)NC(=O)CNC(=O)[C@H](CCC(=O)O)NC(=O)[C@H](CSSC[C@H](NC(=O)[C@@H](N)Cc4ccc(O)cc4)C(=O)N[C@@H](CCC(=O)O)C(=O)N[C@@H](CCCCN)C(=O)N[C@@H](Cc4c[nH]c5ccccc45)C(=O)N[C@@H](CCSC)C(=O)N[C@@H](Cc4c[nH]c5ccccc45)C(=O)N[C@@H]([C@@H](C)O)C(=O)N3)NC2=O)C(=O)N[C@@H](CCCCN)C(=O)N[C@@H](CC(C)C)C(=O)N[C@@H](Cc2c[nH]c3ccccc23)C(=O)N1)[C@@H](C)CC)C(N)=O [compound 50]	453	58.7	–	–	–	8
C#CC[C@H](N)C(=O)NCCCC[C@@H]1NC(=O)[C@H](CCCNC(=N)N)NC(=O)[C@H](CCCCN)NC(=O)[C@H](CO)NC(=O)[C@H](CC(=O)O)NC(=O)[C@@H]2CSSC[C@@H]3NC(=O)[C@H](CCCNC(=N)N)NC(=O)[C@H](CC(C)C)NC(=O)CNC(=O)[C@H](CCC(=O)O)NC(=O)[C@H](CSSC[C@H](NC(=O)[C@H](Cc4ccc(O)cc4)NC(=O)[C@@H](N)CCC)C(=O)N[C@@H](CCC(N)=O)C(=O)N[C@@H](CCCCN)C(=O)N[C@@H](Cc4c[nH]c5ccccc45)C(=O)N[C@@H](CCCC)C(=O)N[C@@H](Cc4c[nH]c5ccccc45)C(=O)N[C@@H]([C@@H](C)O)C(=O)N2)NC(=O)[C@H](CSSC[C@@H](C(=O)N[C@@H](CCCNC(=N)N)C(=O)N[C@@H](CCCCN)C(=O)N[C@H](C(=O)N[C@H](C(N)=O)[C@@H](C)CC)[C@@H](C)CC)NC(=O)[C@H](Cc2c[nH]c4ccccc24)NC(=O)[C@H](CC(C)C)NC(=O)[C@H](CCCCN)NC3=O)NC1=O [compound 431]	–	–	–	13	1.63	–
C#CC[C@H](N)C(=O)N[C@@H](Cc1ccc(O)cc1)C(=O)N[C@H]1CSSC[C@@H]2NC(=O)[C@@H]3CSSC[C@@H](C(=O)N[C@@H](CCCNC(=N)N)C(=O)N[C@@H](CCCCN)C(=O)N[C@H](C(=O)N[C@H](C(N)=O)[C@@H](C)CC)[C@@H](C)CC)NC(=O)[C@H](Cc4c[nH]c5ccccc45)NC(=O)[C@H](CC(C)C)NC(=O)[C@H](CCCCN)NC(=O)[C@H](CSSC[C@H](NC(=O)[C@H]([C@@H](C)O)NC(=O)[C@H](Cc4c[nH]c5ccccc45)NC(=O)[C@H](CCCC)NC(=O)[C@H](Cc4c[nH]c5ccccc45)NC(=O)[C@H](CCCCN)NC(=O)[C@H](CCC(N)=O)NC1=O)C(=O)N[C@@H](CC(=O)O)C(=O)N[C@@H](CO)C(=O)N[C@@H](CCC(=O)O)C(=O)N[C@@H](CCCNC(=N)N)C(=O)N[C@@H](C)C(=O)N3)NC(=O)[C@H](CCCNC(=N)N)NC(=O)[C@H](CC(C)C)NC(=O)CNC(=O)[C@H](CCC(=O)O)NC2=O [compound 730]	–	–	37.2	31	1.19	–
